Several values for one entry are separate records, joined by “and”; a condition that tells them apart may be missing. Equal values may be shown once. Read-outs that look alike come from different tables or passages of the source.
What was measured:
[1] = system: Fmr1 KO mice; test: Open field test (hyperactivity); assay type: in vivo; design: unit not given here; settings: for Mean 2 (group mean), Open Field: KO group mean, n 10
Description: (§1) Fmr1 KO mice backcrossed to the FVB strain and WT littermates were used during experiments. TransnetXY Automated Genotyping (www.transnetyx.com/). TRANSNETYX, INC., 8110 Cordova Rd. Suite 119, Cordova, TN 38016, USA was used for genotyping. The animals were pretreated for 14 days. The active ingredients of Sumatriptan and Ergoloid were in a water carrier, whereas oxitriptan was in a methanol carrier.
(§2) The mice were housed in plastic cages (35×30×12 cm), 5 in each. The room temperature (21±2° C.),relative humidity (55±5%), a 12-h light-dark cycle (lights on 7 a.m.-7 p.m.) and air exchange (16 times per h) were automatically controlled. The animals had free access to commercial food pellets and water. Testing was conducted during the light phase. Ten mice per treatment group were used for the AGS experiments. Experiments were conducted in line with the requirements of the UK Animals (Scientific Procedures) Act, 1986.
(§3) All experiments were conducted with the experimenter blind to genotype and drug treatment. Separate investigators prepared and coded dosing solutions, allocated the mice to the study treatment groups, dosed the animals, and collected the Audiogenic Seizure data.
(§4) Behavior testing was conducted at 2 weeks. The behavioral tests were as follows: 1. Hyperactivity: Open field; 2. Stereotypy: Self-grooming; 3. Sociability: Three chamber partition test; 4. Memory and Learning: Novel Object Recognition; 5. Anxiety: hyponeophagia; and 6. Test of daily living: marble burying
For hyperactivity, the open field test (OFT) is a common measure of exploratory behavior and general activity in both mice and rats, where both the quality and quantity of the activity can be measured. Principally, the open field (OF) is an enclosure, generally square, rectangular, or circular in shape with surrounding walls that prevent escape. The OFT is also commonly used as a mechanism to assess the sedative, toxic, or stimulant effects of compounds (Gould 2009).
(§5) The treatment of the mice with OX (Oxitriptan), SU (Sumatriptan), ER (Ergoloid mesylates) were according to the matrix shown below in Table 1.

[2] = system: Fmr1 KO mice; test: Stereotypy: self-grooming; assay type: in vivo; design: unit not given here; settings: for Mean Diff. (KO-V vs. group), Stereotypy: Dunnett's test against KO-V; for Mean Diff. (KO-V vs. group), Stereotypy / Data table Stereotypy (individual animals): Sumatriptan 20, Oxitriptan 40, Ergoloid 4 mg/kg, Ergoloid 2 + Oxitriptan 40 mg/kg; for Data table Stereotypy (individual animals): KO mice, one value per animal
Description: as §1, §2, §3, §4
For stereotypy, self-grooming was assessed. Self-grooming in animals is an innate behaviour that is involved in hygiene maintenance and other physiologically important processes, including thermoregulation, social communication and de-arousal. It is one of the most frequently observed behaviours in awake rodents and has a patterned, sequential organization with characteristic cephalocaudal progression (Kalueff 2016).
as §5

[3] = system: Fmr1 KO mice; test: Sociability: three chamber partition test; assay type: in vivo; design: unit not given here; settings: for Mean 2 (F_ group mean), Sociability / Mean Diff. (F_KO-V vs. F_ group), Sociability: F_ values; for Mean 2 (F_ group mean), Sociability / Mean 2 (N_ group mean), Sociability / Mean 2 (group mean), Sociability: KO group mean; for Mean 2 (F_ group mean), Sociability / Mean 2 (N_ group mean), Sociability: table against F_KO-V; for Mean 2 (F_ group mean), Sociability: doses as E34; for Mean Diff. (F_KO-V vs. F_ group), Sociability: Ergoloid 2 + Oxitriptan 40 mg/kg; for Mean 2 (N_ group mean), Sociability: doses as E37; for Mean 2 (group mean), Sociability: table against N_WT-V (mean 99.10), doses as E13; for Mean Diff. (N_WT-V vs. group), Sociability: Dunnett's test against N_WT-V, Ergoloid 2 + Sumatriptan 10, Ergoloid 2 + Oxitriptan 40 mg/kg
Description: as §1, §2, §3, §4
For sociability a three chamber partition test was utilized. The three-chamber paradigm test known as Crawley's sociability and preference for social novelty protocol has previously been successfully employed to study social affiliation and social memory in several inbred and mutant mouse lines. The main principle of the test was based on the free choice by a subject mouse to spend time in any of three box's compartments during two experimental sessions, including indirect contact with one or two mice with which it was unfamiliar (Kaidanovich-Beilin 2011).
as §5

[4] = system: Fmr1 KO mice; test: Memory and learning: Novel Object Recognition (NOR); assay type: in vivo; design: unit not given here; settings: for Mean 2 (group mean), NOR: table against N_WT-V (mean 13.90), doses as E10; for Mean Diff. (N_WT-V vs. group), NOR: Dunnett's test against N_WT-V, Ergoloid 2 + Sumatriptan 10, Ergoloid 2 + Oxitriptan 40 mg/kg
Description: as §1, §2, §3, §4
For memory and learning, a novel object recognition (NOR) task was used to evaluate the rodents' ability to recognize a novel object in the environment. […] The task procedure consists of three phases: habituation, familiarization, and test phase (Antunes 2012).
as §5

[5] = system: Fmr1 KO mice; test: Anxiety: hyponeophagia test; assay type: in vivo; design: unit not given here; settings: for Mean Diff. (KO-V vs. group), Hyponeophagia: Dunnett's test against KO-V, Ergoloid 2 + Oxitriptan 40 mg/kg; for Mean 2 (group mean), Hyponeophagia: KO group mean, n 10
Description: as §1, §2, §3, §4
For anxiety a hyponeophagia test was conducted. Mice and rats cannot vomit, due to the tightness of the cardiac sphincter of the stomach, so to overcome the problem of potential food toxicity they have evolved a strategy of first ingesting only very small amounts of novel substances. The amounts ingested then gradually increase until the animal has determined whether the substance is safe and nutritious. So the old rat-catchers would first put a palatable substance such as oatmeal, which was to be the vehicle for the toxin, in the infested area (Deacon 2011).
as §5

[6] = system: Fmr1 KO mice; test: Test of daily living (marble burying / nesting); assay type: in vivo; design: scale not given here; settings: for Mean Diff. (KO-V vs. group), Test of daily living: Dunnett's test against KO-V, Ergoloid 2 + Oxitriptan 40 mg/kg; for Mean Diff. (KO-V vs. group), Test of daily living / Mean Diff. (WT-V vs. group), Test of daily living: Sumatriptan 20, Oxitriptan 40, Ergoloid 4 mg/kg; for Mean Diff. (WT-V vs. group), Test of daily living: Dunnett's test against WT-V, Column F Ergoloid 2 + Sumatriptan 10, Column G Ergoloid 2 + Oxitriptan 40 mg/kg; for Mean 2 (group mean), Test of daily living: KO group mean, n 10
Description: as §1, §2, §3, §4
For test of daily living, nesting was assessed as nest building is an innate behavior in rodents, even when raised in laboratory settings. Synthetic and/or natural materials (such as twine, tissue, cotton, paper, and hay) are provided as a gauge of their overall well-being and as an ancillary assessment to predict the possible decline in cognition. Typically, changes in nesting behaviors, such as failure to create a nest, indicate a change in health or welfare. In addition, nesting behavior is sensitive to many environmental and physiological challenges, as well as many genetic mutations underlying pathological disease states (Gaskill 2013).
as §5

[7] = system: FMR1 mice; test: Behavioral experiments, FXS phenotypes overall; assay type: in vivo; settings: summary statement
Description: as §1, §4, §5

[8] = cited from earlier work
[9] = system: patients with autism or Asperger's disorder; settings: versus placebo; cited from earlier work
[10] = table against KO-V (mean 8263), doses as E16
[11] = table against WT-V (mean 4207), doses as E1
[12] = Dunnett's test against F_KO-V, Sumatriptan 20, Oxitriptan 40, Ergoloid 4 mg/kg
[13] = Fmr1 KO mice, Oxitriptan 40 mg/kg, F column, individual animals
[14] = Fmr1 KO mice, Oxitriptan 40 mg/kg, individual animals
[15] = N_ values, Sumatriptan 20, Oxitriptan 40, Ergoloid 4 mg/kg
[16] = Sumatriptan 20, Oxitriptan 40, Ergoloid 4 mg/kg
[17] = table against KO-V (mean 237.3), doses as E22
[18] = table against WT-V (mean 145.5), doses as E4
[19] = table against KO-V (mean 1.200), doses as E25
[20] = table against WT-V (mean 4.800), doses as E7
[21] = Fmr1 KO mice, Sumatriptan 20 mg/kg, F column, individual animals
[22] = Fmr1 KO mice, Sumatriptan 20 mg/kg, individual animals
[23] = N_ values, Dunnett's test against F_KO-V, Sumatriptan 20, Oxitriptan 40, Ergoloid 4 mg/kg, Column N Ergoloid 2 + Oxitriptan 40 mg/kg

Row | Compound | Mean 2 (group mean), Open Field [1, 10] | Mean 2 (group mean), Open Field [1, 11] | Mean Diff. (KO-V vs. group), Stereotypy [2] | Data table Stereotypy (individual animals) [2] | Mean 2 (F_ group mean), Sociability [3] | Mean Diff. (F_KO-V vs. F_ group), Sociability [3, 12] | Mean 2 (N_ group mean), Sociability ([3]; N_ values) | Mean 2 (group mean), Sociability ([3]; N_ values) | Mean Diff. (N_WT-V vs. group), Sociability [3, 15] | Mean 2 (group mean), NOR ([4]; N_ values, KO group mean) | Mean Diff. (N_WT-V vs. group), NOR [4, 15] | Mean Diff. (KO-V vs. group), Hyponeophagia [5, 16] | Mean 2 (group mean), Hyponeophagia [5, 17] | Mean 2 (group mean), Hyponeophagia [5, 18] | Mean Diff. (KO-V vs. group), Test of daily living [6] | Mean Diff. (WT-V vs. group), Test of daily living [6] | Mean 2 (group mean), Test of daily living [6, 19] | Mean 2 (group mean), Test of daily living [6, 20] | also measured
1 | N[C@@H](Cc1c[nH]c2ccc(O)cc12)C(=O)O [Oxitriptan] | 4720 | 4720 | 10.10 | 34 and 37 (2×) and 40 and 36 and 38 (2×) and 33 and 31 and 29 | 52.10 | 29.50 | 98.80 | 96.80 | 0.3000 | 10.82 | 3.082 | 91.10 | 146.2 | 146.2 | −3.700 | −0.1000 | 4.800 | 4.900 | Mean Diff. (KO-V vs. group), Open Field ([1]; Dunnett's test against KO-V, Sumatriptan 20, Oxitriptan 80, Ergoloid 4 mg/kg, Ergoloid 2 + Oxitriptan 40 mg/kg): 3543; Mean 2 (group mean), Stereotypy ([2]; KO group mean, n 10, table against KO-V (mean 45.40), doses as E19): 35.30; Sociability, F_KO-Oxitriptan [3, 13]: 54 and 52 (2×) and 50 (2×) and 53 (2×) and 51 and 55; Sociability, N_KO-Oxitriptan [3, 14]: 104 and 98 (2×) and 97 (2×) and 100 (2×) and 99 (2×) and 96; Novel Object Recognition, F_KO-Oxitriptan [4, 13]: 6 (4×) and 5 (3×) and 9 (2×) and 8 (2×); Novel Object Recognition, N_KO-Oxitriptan [4, 14]: 10 (4×) and 12 and 14 and 8 (2×) and 15 and 13 and 9; Mean 2 (N_ group mean), NOR ([4]; N_ values, KO group mean, table against F_KO-V, doses as E31): 10.82; Mean Diff. (WT-V vs. group), Hyponeophagia ([5]; Dunnett's test against WT-V, Sumatriptan 20, Oxitriptan 40, Ergoloid 4 mg/kg, Column F Ergoloid 2 + Sumatriptan 10, Column G Ergoloid 2 + Oxitriptan 40 mg/kg): −0.7000; Hyponeophagia, KO-Oxitriptan [5, 14]: 151 and 145 and 150 and 140 (2×) and 147 and 143 and 152 and 148 and 146; Tests of daily living, KO-Oxitriptan [6, 14]: 5 (9×) and 4
2 | CNS(=O)(=O)Cc1ccc2[nH]cc(CCN(C)C)c2c1 [Sumatriptan, 1-[3-[2-(dimethylamino)ethyl]-1H-indol-5-yl]-N-methylmethanesulfonamide] | 7416 | 7416 | 14.60 | 29 and 35 and 31 (2×) and 30 (3×) and 32 and 28 and 33 | 62.20 | 19.40 | 98.20 | 98.20 | 0.9000 | 7.300 | 6.600 | 82.60 | 154.7 | 154.7 | −3.500 | 0.1000 | 4.700 | 4.700 | Mean Diff. (WT-V vs. group), Open Field ([1]; Dunnett's test against WT-V, Sumatriptan 20 mg/kg, 5-HTP 80 mg/kg, EM 4 mg/kg, Column F Ergoloid 2 + Sumatriptan 10 mg/kg, Ergoloid 2 + Oxitriptan 40 mg/kg): −3209; Sociability, F_KO-Sumatriptan [3, 21]: 61 (2×) and 64 and 65 (2×) and 60 (3×) and 63 (2×); Sociability, N_KO-Sumatriptan [3, 22]: 99 and 97 (2×) and 103 and 98 and 90 and 102 and 100 and 95 and 101; Mean Diff. (F_KO-V vs. N_ group), Sociability [3, 23]: −18.80; Mean Diff. (F_KO-V vs. F_ group), NOR ([4]; F_ values, Dunnett's test against F_KO-V, Sumatriptan 20, Oxitriptan 40, Ergoloid 4 mg/kg, Ergoloid 2 + Oxitriptan 40 mg/kg): −0.2000; Novel Object Recognition, F_KO-Sumatriptan [4, 21]: 9 (2×) and 5 (2×) and 8 (2×) and 7 (2×) and 4 and 6; Novel Object Recognition, N_KO-Sumatriptan [4, 22]: 6 (2×) and 8 (2×) and 9 (3×) and 5 and 7; Mean Diff. (F_KO-V vs. N_ group), NOR [4, 23]: −0.7000; Hyponeophagia, KO-Sumatriptan [5, 22]: 154 (2×) and 157 (2×) and 148 and 153 and 155 and 158 and 159 and 152; Tests of daily living, KO-Sumatriptan [6, 22]: 5 (7×) and 4 (3×); effect on FXS phenotypes [7]: ameliorates the FXS phenotypes in FMR1 mice; half life ([8]; administered orally): 1.7 h; half life ([8]; administered subcutaneous): 1.9 h; GH response to sumatriptan [9]: significantly greater than to placebo
